# Measured values taken from patent publication US4582827A, “Pesticidal diphenylaziridines” (priority 1983, dated 1986).
# Tests used:
# H. virescens = test: Incorporation into H. virescens diet; assay type: in vivo, Heliothis virescens; details: as much as 20 mM in diet
# Procedure: Compounds 1, 10, 11, 13 and 14 were incorporated into H. virescens diet in the same manner as M. Sexta. Diets containing as much as 20 mM of each compound had little effect on larval development time, pupal weight or time to adult emergence.
# [1] = Acute oral toxicity test using the rat; details: in vivo
# Source text: In these studies, it has been determined that the 1,2-diphenylaziridines of this invention have low mammalian toxicity.
# Immediate effects, resulting from insecticide toxicity, are usually related to the principal toxic action of the compound.
# [2] = system: Salmonella typhimurium strains TA 98, TA 100, TA 1535, TA 1537, TA 1538, TA 1978; test: Ames assay (spot test), revertant colonies; assay type: cell-based
# Procedure: This means that aziridine compounds, 1, 10, or 11, will not cause mutations in DNA arising from potential changes in frame shift and/or base pairing. Compounds 1, 10 and 11 were tested for mutagenic properties using the following experimental procedure.
# Potential mutagenic and carcinogenic properties of the compounds were evaluated with standard Ames assay procedures (Ames et al, "Mutation Res.", 31, p. 347, 1975). This assay used strains of Salmonella typhimurium selected for sensitivity and specificity in being reverted from a histidine requirement back to prototrophy by a wide variety of mutagens. Potential changes in frameshift were evaluated using strains TA 98, TA 1537 and TA 1538, while changes in base pairing were detected using strains TA 100 and TA 1535. In addition, strain TA 1978 was used, in combination with TA 1538, to evaluate whether the agent killed bacteria by damage to DNA that could be repaired by this strain. Initially, the compounds were screened using the spot test, in which 1000 μgm of material dissolved in 10 μl of DNSO was applied to the middle of the plate.
# Dose-response tests were not performed because the results were negative. All the tests were carried out in the presence and absence of an S9 rat liver preparation and contained a positive control (2-acetylaminofluorene,AAF) and a negative control (DMSO).
# [3] = system: tobacco hornworm (Manduca sexta) larvae; test: Tobacco hornworm growth and developmental responses to feeding on diets containing the compounds; assay type: in vivo; details: for oral activity: diet, Example 2
# [4] = system: tobacco hornworm larvae (newly ecdysed fifth-instar); test: Topical application to tobacco hornworm larvae; assay type: in vivo, Manduca sexta
# Procedure: The test compounds were dissolved either in acetone or hexane and applied to the integument of the test insect with a micro applicator. Newly ecdysed fifth-instar tobacco hornworm larvae weighing between 1-1.5 g were used and toxicity data were obtained in the same way as previously described.
# Estigmene acrea (larvae) = test: Topical application study, Estigmene acrea larvae; assay type: in vivo; details: 1250 μg/g, approx. 800 mg, w/in 24 hr
# Source text: (§1) Preliminary tests with topical applications of Compound 13 have been conducted on a number of insect species representing 5 different orders. Since the same amount of compound was used, regardless of body size, the smaller species received a larger dose/body mass. More extensive work will be required to establish LD50 values. […]
# [5] = system: Popillia japonica (larvae); test: Topical application study, Popillia japonica larvae; assay type: in vivo; details: 500 μg/g, approx. 250 mg, w/in 24 hr
# Source text: as §1
# H. virescens larvae = test: Topical application to H. virescens larvae; assay type: in vivo, Heliothis virescens; details: 1500 ppm topical, 200 mg 5th instars
# Musca autumnalis (Adult) = test: Topical application study, Musca autumnalis adult; assay type: in vivo; details: 25,000 μg/g
# Source text: as §1
# [6] = system: Podisus maculiventris (nymphs & adults); test: Topical application study, Podisus maculiventris nymphs & adults; assay type: in vivo; details: 10,000 μg/g
# Source text: as §1
# [7] = system: Blaberus discoidalis (nymphs); test: Topical application study, Blaberus discoidalis nymphs; assay type: in vivo; details: 1000 μg/g, approx. 500 mg, w/in 24 hr
# Source text: as §1
# [8] = system: Ostrinia nubilalis (larvae); test: Topical application study, Ostrinia nubilalis larvae; assay type: in vivo; details: 6250 μg/g, approx. 80 mg; nearing pupation size at time of treatment
# Source text: as §1
# Musca domestica (Adult) = test: Topical application study, Musca domestica adult; assay type: in vivo; details: 25,000 μg/g
# Source text: as §1
# [9] = system: Periplaneta americana (adult); test: Topical application study, Periplaneta americana adult; assay type: in vivo; details: 666 μg/g, approx. 750 mg, w/in 24 hr
# Source text: as §1
# [10] = system: Blattella germanica (adult); test: Topical application study, Blattella germanica adult; assay type: in vivo; details: 7150 μg/g, approx. 70 mg, w/in 24 hr
# Source text: as §1
# [11] = system: Malacosoma americanum (larvae); test: Topical application study, Malacosoma americanum larvae; assay type: in vivo; details: 1000 μg/g, approx. 500 mg, w/in 24 hr
# Source text: as §1
# [12] = system: Hyphantria cunea (larvae); test: Topical application study, Hyphantria cunea larvae; assay type: in vivo; details: 5000 μg/g, approx. 100 mg, w/in 24 hr
# Source text: as §1
# [13] = 5 mM in diet, all tests began with 15 larvae
structure (smiles),measurement,setting,value
"Clc1ccc(N2CC2c2ccccc2Cl)cc1Cl (centres unmarked) [Compound 10, 1-(3-4-dichlorophenyl)-2-(2-chlorophenyl)aziridine]","effect on larval development time, pupal weight or time to adult emergence",H. virescens,little effect
same,LD50,[1],> 2000 mg/kg
same,"Mean number of revertant colonies per plate, TA 98 +S9","[2]; strain TA 98, +S9",45.3 colonies per plate
same,"Mean number of revertant colonies per plate, TA 98 -S9","[2]; strain TA 98, -S9",26.7 colonies per plate
same,"Mean number of revertant colonies per plate, TA 100 +S9","[2]; strain TA 100, +S9",56.0 colonies per plate
same,"Mean number of revertant colonies per plate, TA 100 -S9","[2]; strain TA 100, -S9",26.3 colonies per plate
same,"Mean number of revertant colonies per plate, TA 1535 +S9","[2]; strain TA 1535, +S9",20.3 colonies per plate
same,"Mean number of revertant colonies per plate, TA 1535 -S9","[2]; strain TA 1535, -S9",25.0 colonies per plate
same,"Mean number of revertant colonies per plate, TA 1537 +S9","[2]; strain TA 1537, +S9",13.7 colonies per plate
same,"Mean number of revertant colonies per plate, TA 1537 -S9","[2]; strain TA 1537, -S9",9.0 colonies per plate
same,"Mean number of revertant colonies per plate, TA 1538 +S9","[2]; strain TA 1538, +S9",35.7 colonies per plate
same,"Mean number of revertant colonies per plate, TA 1538 -S9","[2]; strain TA 1538, -S9",12.0 colonies per plate
same,"Mean number of revertant colonies per plate, TA 1978 +S9","[2]; strain TA 1978, +S9",202.0 colonies per plate
same,"Mean number of revertant colonies per plate, TA 1978 -S9","[2]; strain TA 1978, -S9",196.0 colonies per plate
same,mutagenicity,[2]; with and without S9 / mammalian liver enzymes,not mutagenic
same,% Adult Emergence,[3]; 5 mM in diet,7%
same,% Malformed Adults,[3]; 5 mM in diet,100%
same,% Pupation,[3]; 5 mM in diet,80%
same,Days to Max Wt,[3]; 5 mM in diet,7.5 ± .3 days
same,Max Larval Wt,[3]; 5 mM in diet,5.69 ± .27 g
same,Mean No. of Eggs,[3]; 5 mM in diet,55 ± 0
same,No. of female Adults,[3]; 5 mM in diet,1
same,feeding time required to attain reduced maximum weight,[3]; 5 mM in diet,extended the feeding time
same,pupal mortality,[3]; 5 mM in diet,significant pupal mortality
same,reduction in the maximum weight of hornworm larvae,[3]; 5 mM in diet,30-50%
same,wrinkled or crumpled wings of moths,[3]; 5 mM in diet,observed in significant numbers of moths
same,Total No. of Adults,[3]; [13],1
same,oral activity,[3],good oral activity
same,pupal mortality,[3]; summary of Tables I and II,caused pupal mortality
same,topical effect,[4]; 2000 μg/larvae (1600 ppm),ineffective
Fc1ccc(N2CC2c2ccccc2Cl)cc1 (centres unmarked) [Compound 13],mortality at 1250 µg/g,Estigmene acrea (larvae),33%
same,"effect on larval development time, pupal weight or time to adult emergence",H. virescens,little effect
same,mortality at 500 µg/g,[5],100%
same,mortality,H. virescens larvae,failed to kill any of the larvae
same,symptoms,H. virescens larvae,produced some of the symptoms characteristic of this group of compounds
same,time to 100% mortality,Musca autumnalis (Adult),≤ 2 h
same,mortality at 25000 µg/g,"Musca autumnalis (Adult); Musca autumnalis, topical, approx. 20 mg, w/in 2 hr",100%
same,time to 100% mortality,[6],≤ 1.2 h
same,mortality at 10000 µg/g,"[6]; Podisus maculiventris, topical, approx. 50 mg, w/in 1.2 hr",100%
same,mortality at 1000 µg/g,[7],100%
same,Result,[8],No effect
same,time to 100% mortality,Musca domestica (Adult),≤ 1.5 h
same,mortality at 25000 µg/g,"Musca domestica (Adult); Musca domestica, topical, approx. 20 mg, 2/in 1.5 hr",100%
same,mortality at 666 µg/g,[9],100%
same,mortality at 7150 µg/g,[10],100%
same,mortality at 1000 µg/g,[11],100%
same,% Adult Emergence,[3]; 1 mM in diet,100%
same,% Adults,[3]; 1 mM in diet,100%
same,% Malformed Adults,[3]; 1 mM in diet,7%
same,% Pupation,[3]; 1 mM in diet,100%
same,Days to Max Wt,[3]; 1 mM in diet,6.7 ± .2 days
same,Max Larval Wt,[3]; 1 mM in diet,9.50 g
same,Mean No. of Eggs,[3]; 1 mM in diet,71 ± 8
same,No. of female Adults,[3]; 1 mM in diet,11
same,Total No. of Adults,[3]; 1 mM in diet,15
same,% Adult Emergence,[3]; 2.5 mM in diet,86%
same,% Adults,[3]; 2.5 mM in diet,86%
same,% Malformed Adults,[3]; 2.5 mM in diet,0%
same,% Pupation,[3]; 2.5 mM in diet,100%
same,Days to Max Wt,[3]; 2.5 mM in diet,8.7 ± 0.5 days
same,Max Larval Wt,[3]; 2.5 mM in diet,8.03 g
same,Mean No. of Eggs,[3]; 2.5 mM in diet,21 ± 9
same,No. of female Adults,[3]; 2.5 mM in diet,9
same,Total No. of Adults,[3]; 2.5 mM in diet,12
same,maximum larval weight and mean number of eggs,[3]; 2.5 mM in diet,reduced maximum larval weight and the mean number of eggs
same,% Adult Emergence,[3]; 5 mM in diet,13%
same,% Malformed Adults,[3]; 5 mM in diet,50%
same,% Pupation,[3]; 5 mM in diet,13%
same,Days to Max Wt,[3]; 5 mM in diet,10.0 ± 4.2 days
same,Max Larval Wt,[3]; 5 mM in diet,6.13 ± .62 g
same,No. of female Adults,[3]; 5 mM in diet,0
same,larval mortality,[3]; 5 mM in diet,all or nearly all larvae died
same,weight gain of surviving larvae,[3]; 5 mM in diet,no weight gain for 4 or more days
same,wrinkled or crumpled wings of moths,[3]; 5 mM in diet,observed in significant numbers of moths
same,larvae dead by day two,"[3]; 5 mM in diet, day two",60%
same,Total No. of Adults,[3]; [13],2
same,oral activity,[3],good oral activity
same,larval mortality (acute toxicity),"[3]; in 24-72 hours, summary of Tables I and II",100%
same,time to 100% larval mortality,[3]; summary of Tables I and II,24 to 72 h
same,mortality at 5000 µg/g,[12],50%
same,mortality at 125 µg/larva,"[4]; Manduca sexta, topical, 125 μg/larva (100 μg/g or 100 ppm), within 24 hr",60%
same,topical activity against the tobacco hornworm (comparison in words),[4]; topical,the greatest topical activity
same,larval size and number of eggs,"[4]; topical, 50 and 25 ppm",reduced larval size and smaller number of eggs
